# Measurements from patent publication US9012443B2 (Amgen Inc., priority 2011, dated 2015).
# Read-outs that look alike come from different tables or passages of the source.
# Assays:
# Format in all cases: cell-based
# [1] = target: T1, Nav 1.7 (Homo sapiens (Human), UniProt Q15858); assay: Nav 1.7 IWQ in vitro assay (IonWorks Quattro population patch-clamp); details: 293 cells stably transfected with Nav 1.7; first part of table; read-out: Nav 1.7 IWQ IC50
# Summary of the method: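 Percent block, measured in duplicate, came from peak minus end-of-pulse current on the 26th −20 mV step, and IC50 was fitted against concentration. Stably transfected 293 cells were recorded in population patch-clamp mode before and after a single test concentration, which was added over 3–8 min while cells were unclamped.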
# [2] = target: Nav 1.5 (Homo sapiens (Human), UniProt Q14524); assay: Nav 1.5 in vitro PX assay (PatchXpress whole cell voltage clamp)
# Summary of the method: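 HEK293 cells stably expressing Nav 1.5, whole-cell voltage clamp held at −50 mV; 20 msec test pulses to 0 mV at 0.1 Hz, each preceded by a step to −120 mV.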
# [3] = target: T1, Nav 1.7; assay: Nav 1.7 in vitro PX assay (PatchXpress whole cell voltage clamp); details: 293 cells, human Nav1.7, partially inactivated state; read-out: Nav1.7 PX IC50 IP
# Summary of the method: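 Partially inactivated channel state (holding potential for 20–50% inactivation) probed in human Nav1.7-transfected 293 cells by automated patch clamp, test pulse −10 mV for 20 msec.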
# [4] = 293 cells stably transfected with Nav 1.5, first part of table, read-out: Nav 1.5 PX IC50
# [5] = 293 cells stably transfected with Nav 1.5, second part of table, read-out: Nav1.5 PX IC50
# Nav 1.5, sequence (Q14524 whole entry): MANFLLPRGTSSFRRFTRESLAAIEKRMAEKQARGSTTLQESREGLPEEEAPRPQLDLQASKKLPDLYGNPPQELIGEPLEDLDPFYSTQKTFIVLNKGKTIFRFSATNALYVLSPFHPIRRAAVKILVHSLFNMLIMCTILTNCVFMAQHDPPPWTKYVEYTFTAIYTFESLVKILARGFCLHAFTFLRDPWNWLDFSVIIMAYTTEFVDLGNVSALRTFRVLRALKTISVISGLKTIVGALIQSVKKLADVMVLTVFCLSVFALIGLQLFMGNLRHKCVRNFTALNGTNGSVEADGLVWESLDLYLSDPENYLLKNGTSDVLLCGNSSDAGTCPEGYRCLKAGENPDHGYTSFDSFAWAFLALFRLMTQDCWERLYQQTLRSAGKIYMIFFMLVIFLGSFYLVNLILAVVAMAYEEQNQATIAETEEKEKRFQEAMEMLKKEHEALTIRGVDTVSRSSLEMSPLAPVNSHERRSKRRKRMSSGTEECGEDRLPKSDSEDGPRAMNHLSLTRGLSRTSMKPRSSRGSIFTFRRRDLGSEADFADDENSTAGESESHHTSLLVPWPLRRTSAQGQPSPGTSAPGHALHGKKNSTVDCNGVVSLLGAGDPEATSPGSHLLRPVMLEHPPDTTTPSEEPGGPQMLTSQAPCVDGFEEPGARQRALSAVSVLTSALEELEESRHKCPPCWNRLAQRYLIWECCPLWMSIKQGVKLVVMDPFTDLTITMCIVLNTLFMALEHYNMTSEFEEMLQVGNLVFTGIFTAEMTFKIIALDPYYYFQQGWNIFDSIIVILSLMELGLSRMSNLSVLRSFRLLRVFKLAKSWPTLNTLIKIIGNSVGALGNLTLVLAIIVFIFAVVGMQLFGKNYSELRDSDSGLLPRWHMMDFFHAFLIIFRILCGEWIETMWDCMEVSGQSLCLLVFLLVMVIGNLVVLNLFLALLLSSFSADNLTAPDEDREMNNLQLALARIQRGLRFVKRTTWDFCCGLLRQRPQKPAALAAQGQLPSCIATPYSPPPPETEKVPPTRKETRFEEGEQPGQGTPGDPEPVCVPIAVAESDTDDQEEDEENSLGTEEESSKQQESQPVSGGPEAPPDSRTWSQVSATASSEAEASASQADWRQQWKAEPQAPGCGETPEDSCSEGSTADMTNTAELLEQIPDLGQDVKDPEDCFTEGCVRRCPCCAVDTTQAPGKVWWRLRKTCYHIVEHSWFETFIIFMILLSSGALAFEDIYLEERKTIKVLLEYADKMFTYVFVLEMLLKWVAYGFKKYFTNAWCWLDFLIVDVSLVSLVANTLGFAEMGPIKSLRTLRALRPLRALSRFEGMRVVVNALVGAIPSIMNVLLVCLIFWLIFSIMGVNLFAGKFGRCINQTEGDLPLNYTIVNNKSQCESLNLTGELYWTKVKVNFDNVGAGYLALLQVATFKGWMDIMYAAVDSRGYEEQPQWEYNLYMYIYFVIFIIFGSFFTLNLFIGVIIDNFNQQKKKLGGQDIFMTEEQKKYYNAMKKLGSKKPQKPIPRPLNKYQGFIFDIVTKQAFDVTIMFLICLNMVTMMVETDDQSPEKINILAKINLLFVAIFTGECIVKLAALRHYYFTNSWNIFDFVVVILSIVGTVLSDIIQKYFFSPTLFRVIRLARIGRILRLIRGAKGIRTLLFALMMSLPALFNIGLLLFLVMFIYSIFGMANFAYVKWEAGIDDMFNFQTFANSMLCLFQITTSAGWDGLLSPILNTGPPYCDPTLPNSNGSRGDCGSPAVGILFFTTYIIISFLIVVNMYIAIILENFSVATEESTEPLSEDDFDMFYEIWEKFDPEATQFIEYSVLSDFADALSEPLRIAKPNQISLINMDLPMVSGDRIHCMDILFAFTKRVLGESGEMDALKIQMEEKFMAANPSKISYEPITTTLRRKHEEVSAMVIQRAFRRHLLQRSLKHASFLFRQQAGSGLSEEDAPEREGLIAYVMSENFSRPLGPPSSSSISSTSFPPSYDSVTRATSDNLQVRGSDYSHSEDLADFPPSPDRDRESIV
# T1 sequence (Q15858 whole entry): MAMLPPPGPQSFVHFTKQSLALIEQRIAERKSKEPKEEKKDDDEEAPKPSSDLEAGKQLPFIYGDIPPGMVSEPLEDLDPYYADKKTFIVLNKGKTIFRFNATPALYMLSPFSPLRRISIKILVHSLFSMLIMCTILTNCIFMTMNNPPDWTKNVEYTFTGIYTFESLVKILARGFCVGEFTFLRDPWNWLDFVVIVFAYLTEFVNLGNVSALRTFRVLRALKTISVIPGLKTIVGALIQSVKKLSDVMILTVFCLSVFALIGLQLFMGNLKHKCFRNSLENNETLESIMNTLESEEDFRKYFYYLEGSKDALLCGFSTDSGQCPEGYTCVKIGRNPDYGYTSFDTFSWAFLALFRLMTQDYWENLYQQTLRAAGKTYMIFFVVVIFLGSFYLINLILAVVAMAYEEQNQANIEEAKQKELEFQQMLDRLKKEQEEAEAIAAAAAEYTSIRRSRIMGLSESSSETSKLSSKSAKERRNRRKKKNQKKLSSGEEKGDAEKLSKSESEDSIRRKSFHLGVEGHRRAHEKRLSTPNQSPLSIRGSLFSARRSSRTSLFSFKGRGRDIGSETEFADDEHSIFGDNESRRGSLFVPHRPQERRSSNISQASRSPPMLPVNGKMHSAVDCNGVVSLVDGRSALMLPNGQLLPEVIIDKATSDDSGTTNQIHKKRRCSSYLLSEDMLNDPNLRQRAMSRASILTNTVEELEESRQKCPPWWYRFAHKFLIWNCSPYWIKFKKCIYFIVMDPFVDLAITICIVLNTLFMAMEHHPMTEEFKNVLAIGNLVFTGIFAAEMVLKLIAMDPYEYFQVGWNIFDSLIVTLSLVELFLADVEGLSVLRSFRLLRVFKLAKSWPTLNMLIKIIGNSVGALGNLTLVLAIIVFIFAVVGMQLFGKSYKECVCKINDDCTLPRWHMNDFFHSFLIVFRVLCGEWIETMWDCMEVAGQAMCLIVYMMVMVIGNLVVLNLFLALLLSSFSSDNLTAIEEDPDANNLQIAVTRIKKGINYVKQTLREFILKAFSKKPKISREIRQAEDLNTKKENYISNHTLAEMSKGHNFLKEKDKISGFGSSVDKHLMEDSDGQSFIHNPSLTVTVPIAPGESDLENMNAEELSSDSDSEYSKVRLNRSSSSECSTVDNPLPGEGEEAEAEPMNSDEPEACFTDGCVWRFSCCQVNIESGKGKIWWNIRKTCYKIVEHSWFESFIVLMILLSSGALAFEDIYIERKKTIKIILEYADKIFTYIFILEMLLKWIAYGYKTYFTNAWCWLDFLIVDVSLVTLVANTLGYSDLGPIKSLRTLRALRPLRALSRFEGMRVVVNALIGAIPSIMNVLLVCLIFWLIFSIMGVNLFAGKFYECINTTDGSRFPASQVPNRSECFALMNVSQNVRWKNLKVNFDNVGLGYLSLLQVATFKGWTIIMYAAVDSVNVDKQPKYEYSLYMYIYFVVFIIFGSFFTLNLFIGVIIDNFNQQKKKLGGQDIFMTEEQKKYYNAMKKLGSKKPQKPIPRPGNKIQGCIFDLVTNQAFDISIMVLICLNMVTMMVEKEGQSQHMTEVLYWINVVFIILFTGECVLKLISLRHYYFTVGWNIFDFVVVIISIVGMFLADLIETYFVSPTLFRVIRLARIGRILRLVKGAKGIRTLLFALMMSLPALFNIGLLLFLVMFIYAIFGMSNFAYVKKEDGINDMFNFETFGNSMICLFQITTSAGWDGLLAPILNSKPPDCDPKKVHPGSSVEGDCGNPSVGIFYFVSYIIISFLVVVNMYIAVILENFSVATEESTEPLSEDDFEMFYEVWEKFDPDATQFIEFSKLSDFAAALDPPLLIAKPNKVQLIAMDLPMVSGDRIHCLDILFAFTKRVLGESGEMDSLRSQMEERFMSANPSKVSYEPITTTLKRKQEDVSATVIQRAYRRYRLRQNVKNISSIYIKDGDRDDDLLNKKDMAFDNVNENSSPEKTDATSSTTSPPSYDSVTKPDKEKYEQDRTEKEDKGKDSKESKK
IC50 [1],IC50 [3],SMILES,"IC50 [2, 4]",IC50 [2],"IC50 [2, 5]"
170 nM,–,NC(=O)c1cc(C(F)(F)F)ccc1-c1cccc2cc(S(=O)(=O)Nc3ncns3)ccc12 [Example 32],> 30000 nM,–,–
170 nM,–,O=S(=O)(Nc1ncns1)c1ccc2c(-c3ccc(F)cc3Cl)cccc2c1 [Example 5],23800 nM,–,–
460 nM,–,O=S(=O)(Nc1ncns1)c1ccc2c(-c3ccccc3)cccc2c1 [Example 9],23800 nM,–,–
50 nM,–,Cn1nccc1-c1cc(Cl)ccc1-c1cccc2cc(S(=O)(=O)Nc3ncns3)ccc12 [Example 25],> 30000 nM,–,–
90 nM,–,O=S(=O)(Nc1ncns1)c1ccc2c(-c3ccc(F)cc3Br)cccc2c1 [Example 3],24200 nM,–,–
50 nM,–,O=S(=O)(Nc1ncns1)c1ccc2c(-c3ccc(C(F)(F)F)cc3Cl)cccc2c1 [Example 29],> 30000 nM,–,–
30 nM,–,"O=S(=O)(Nc1ncns1)c1ccc2c(-c3ccc(C(F)(F)F)cc3Br)nccc2c1 [Example 50, 1-(2-BROMO-4-(TRIFLUOROMETHYL)PHENYL)-N-(1,2,4-THIADIAZOL-5-YL)ISOQUINOLINE-6-SULFONAMIDE]",> 30000 nM,–,–
40 nM,–,"Cn1nccc1-c1cc(C(F)(F)F)ccc1-c1nccc2cc(S(=O)(=O)Nc3ncns3)ccc12 [Example 54, 1-(2-(1-METHYL-1H-PYRAZOL-5-YL)-4-(TRIFLUOROMETHYL)PHENYL)-N-(1,2,4-THIADIAZOL-5-YL)ISOQUINOLINE-6-SULFONAMIDE]",> 30000 nM,–,–
10 nM,–,"O=S(=O)(Nc1ncns1)c1ccc2c(-c3ccc(C(F)(F)F)cc3-c3cn[nH]c3)nccc2c1 [Example 55, 1-(2-(1H-PYRAZOL-4-YL)-4-(TRIFLUOROMETHYL)PHENYL)-N-(1,2,4-THIADIAZOL-5-YL)ISOQUINOLINE-6-SULFONAMIDE]",> 30000 nM,–,–
80 nM,–,Cc1cc(C(F)(F)F)ccc1-c1cccc2cc(S(=O)(=O)Nc3ncns3)ccc12 [Example 11],5070 nM,–,–
20 nM,–,"O=S(=O)(Nc1ncns1)c1ccc2c(-c3ccc(Cl)cc3-c3cn[nH]c3)cccc2c1 [Example 27, 5-(4-CHLORO-2-(1H-PYRAZOL-4-YL)PHENYL)-N-(1,2,4-THIADIAZOL-5-YL)NAPHTHALENE-2 SULFONAMIDE]",> 30000 nM,–,–
270 nM,–,Cn1nccc1-c1cc(C(F)(F)F)ccc1-c1cccc2cc(S(=O)(=O)Nc3nccs3)ccc12 [Example 47],5820 nM,–,–
–,58 nM,"COc1cc(-c2cccc(C(F)(F)F)c2)ccc1-c1ncnc2cc(S(=O)(=O)Nc3ccncn3)ccc12 [Example 528, 4-(3-METHOXY-3′-(TRIFLUOROMETHYL)-[1,1′-BIPHENYL]-4-YL)-N-(PYRIMIDIN-4-YL)QUINAZOLINE-7-SULFONAMIDE]",–,–,> 30000 nM
–,106 nM,"COc1cc(Cl)ccc1-c1ccc(-c2nccc3cc(S(=O)(=O)Nc4ccncn4)ccc23)c(OC)c1 [Example 460, 1-(4′-CHLORO-2′,3-DIMETHOXY-[1,1′-BIPHENYL]-4-YL)-N-(PYRIMIDIN-4-YL)ISOQUINOLINE-6-SULFONAMIDE]",–,–,> 30000 nM
–,660 nM,"COc1cc(C(F)(F)F)ccc1-c1ccnc2cc(S(=O)(=O)Nc3nccs3)c(C)cc12 [Example 326, 4-(2-METHOXY-4-(TRIFLUOROMETHYL)PHENYL)-6-METHYL-N-(THIAZOL-2-YL)QUINOLINE-7-SULFONAMIDE]",–,–,2500 nM
–,69 nM,"COc1cc(-c2cccc(F)c2)c(C#N)cc1-c1nccc2cc(S(=O)(=O)Nc3nncs3)ccc12 [Example 341, 1-(2-CYANO-3′-FLUORO-5-METHOXY-[1,1′-BIPHENYL]-4-YL)-N-(1,3,4-THIADIAZOL-2-YL)ISOQUINOLINE-6-SULFONAMIDE]",–,–,> 30000 nM

IC50 [1],IC50 [3],SMILES,"IC50 [2, 4]",IC50 [2],"IC50 [2, 5]"
–,152 nM,"COc1cc(-c2cc(F)ccc2F)ccc1-c1nccc2cc(S(=O)(=O)Nc3ccncn3)ccc12 [Example 446, 1-(2′,5′-DIFLUORO-3-METHOXY-[1,1′-BIPHENYL]-4-YL)-N-(PYRIMIDIN-4-YL)ISOQUINOLINE-6-SULFONAMIDE]",–,–,> 30000 nM
–,110 nM,"COc1cc(-c2cccc(F)c2)ccc1-c1nccc2cc(S(=O)(=O)Nc3nncs3)ccc12 [Example 354, 1-(3′-FLUORO-3-METHOXY-[1,1′-BIPHENYL]-4-YL)-N-(1,3,4-THIADIAZOL-2-YL)ISOQUINOLINE-6-SULFONAMIDE 2,2,2-TRIFLUOROACETATE]",–,–,> 30000 nM
–,513 nM,"COc1cc(CC(C)(C)C)ccc1-c1nccc2cc(S(=O)(=O)Nc3ccncn3)ccc12 [Example 360, 1-(2-METHOXY-4-NEOPENTYLPHENYL)-N-(PYRIMIDIN-4-YL)ISOQUINOLINE-6-SULFONAMIDE]",–,–,> 30000 nM
–,132 nM,"COc1ccc(Cl)cc1-c1nccc2cc(S(=O)(=O)Nc3ncns3)ccc12 [Example 346, 1-(5-CHLORO-2-METHOXYPHENYL)-N-(1,2,4-THIADIAZOL-5-YL)ISOQUINOLINE-6-SULFONAMIDE]",–,–,> 30000 nM
–,394 nM,"Cc1cc(-c2cccc(F)c2)ccc1-c1nccc2cc(S(=O)(=O)Nc3ccncn3)ccc12 [Example 358, 1-(3′-FLUORO-3-METHYL-[1,1′-BIPHENYL]-4-YL)-N-(PYRIMIDIN-4-YL)ISOQUINOLINE-6-SULFONAMIDE]",–,–,> 30000 nM
–,544 nM,"N#CCOc1ccccc1-c1nccc2cc(S(=O)(=O)Nc3nccs3)ccc12 [Example 375, 1-(2-(CYANOMETHOXY)PHENYL)-N-(THIAZOL-2-YL)ISOQUINOLINE-6-SULFONAMIDE 2,2,2-TRIFLUOROACETATE]",–,–,> 30000 nM
–,383 nM,"COc1cc(C(F)F)c(F)cc1-c1nc(C)nc2cc(S(=O)(=O)Nc3nccs3)ccc12 [Example 514, 4-(4-(difluoromethyl)-5-fluoro-2-methoxyphenyl)-2-methyl-N-(thiazol-2-yl)quinazoline-7-sulfonamide]",–,–,> 30000 nM
–,122 nM,"COc1cc(-c2cccc(F)c2)c(C#N)cc1-c1nccc2cc(S(=O)(=O)Nc3ccon3)ccc12 [Example 342, 1-(2-CYANO-3′-FLUORO-5-METHOXY-[1,1′-BIPHENYL]-4-YL)-N-(ISOXAZOL-3-YL)ISOQUINOLINE-6-SULFONAMIDE]",–,–,> 30000 nM
–,48 nM,"COc1cc(-c2cc(F)cc(F)c2)ccc1-c1nccc2cc(S(=O)(=O)Nc3nncs3)ccc12 [Example 355, 1-(3′,5′-DIFLUORO-3-METHOXY-[1,1′-BIPHENYL]-4-YL)-N-(1,3,4-THIADIAZOL-2-YL)ISOQUINOLINE-6-SULFONAMIDE 2,2,2-TRIFLUOROACETATE]",–,–,> 30000 nM
–,38 nM,"COc1cc(-c2ccc(F)c(F)c2)ccc1-c1nccc2cc(S(=O)(=O)Nc3ccncn3)ccc12 [Example 448, 1-(3′,4′-DIFLUORO-3-METHOXY-[1,1′-BIPHENYL]-4-YL)-N-(PYRIMIDIN-4-YL)ISOQUINOLINE-6-SULFONAMIDE]",–,–,> 30000 nM
–,170 nM,COc1cc(-c2ccc(C)c(C)c2)ccc1-c1nccc2cc(S(=O)(=O)Nc3ccncn3)ccc12 [Example 469],–,–,> 30000 nM
–,95 nM,"COc1cc(-c2cc(C)cc(Cl)c2)ccc1-c1nccc2cc(S(=O)(=O)Nc3ccncn3)ccc12 [Example 495, 1-(3′-CHLORO-3-METHOXY-5′-METHYL-[1,1′-BIPHENYL]-4-YL)-N-(PYRIMIDIN-4-YL)ISOQUINOLINE-6-SULFONAMIDE]",–,–,19100 nM
–,58 nM,"COc1cc(-c2cccc(F)c2)ccc1-c1ncnc2cc(S(=O)(=O)Nc3ncns3)ccc12 [Example 525, 4-(3′-FLUORO-3-METHOXY-[1,1′-BIPHENYL]-4-YL)-N-(1,2,4-THIADIAZOL-5-YL)QUINAZOLINE-7-SULFONAMIDE]",–,–,> 30000 nM
–,77 nM,"COc1cc(-c2ccccc2C)ccc1-c1nccc2cc(S(=O)(=O)Nc3ccncn3)ccc12 [Example 441, 1-(3-METHOXY-2′-METHYL-[1,1′-BIPHENYL]-4-YL)-N-(PYRIMIDIN-4-YL)ISOQUINOLINE-6-SULFONAMIDE]",–,–,> 30000 nM
–,62 nM,"COc1cc(-c2ccc(F)c(Cl)c2)ccc1-c1nccc2cc(S(=O)(=O)Nc3ccncn3)ccc12 [Example 490, 1-(3′-CHLORO-4′-FLUORO-3-METHOXY-[1,1′-BIPHENYL]-4-YL)-N-(PYRIMIDIN-4-YL)ISOQUINOLINE-6-SULFONAMIDE]",–,–,> 30000 nM
–,456 nM,"COc1ccccc1-c1nccc2cc(S(=O)(=O)Nc3nccs3)ccc12 [Example 406, 1-(2-METHOXYPHENYL)-N-(THIAZOL-2-YL)ISOQUINOLINE-6-SULFONAMIDE]",–,–,> 30000 nM

SMILES,IC50 [1],IC50 [3],"IC50 [2, 4]",IC50 [2],"IC50 [2, 5]"
O=S(=O)(Nc1ncns1)c1ccc2c(-c3ccc(Cl)cc3C3=CCNCC3)cccc2c1 [Example 26],20 nM,–,–,> 30000 nM,–
"COc1cc(C(F)(F)F)ccc1-c1n[nH]c(=O)c2cc(S(=O)(=O)Nc3nccs3)ccc12 [Example 293, 1-(2-METHOXY-4-(TRIFLUOROMETHYL)PHENYL)-4-OXO-N-(THIAZOL-2-YL)-3,4-DIHYDROPHTHALAZINE-6-SULFONAMIDE]",–,150 nM,–,–,> 30000 nM
"COc1cc(-c2cccc(F)c2)ccc1-c1ncnc2cc(S(=O)(=O)Nc3nncs3)ccc12 [Example 529, 4-(3′-FLUORO-3-METHOXY-[1,1′-BIPHENYL]-4-YL)-N-(1,3,4-THIADIAZOL-2-YL)QUINAZOLINE-7-SULFONAMIDE]",–,258 nM,–,–,> 30000 nM
Cc1cc(Cl)ccc1-c1ncnc2cc(S(=O)(=O)Nc3ncns3)ccc12 [Example 532],–,996 nM,–,–,> 30000 nM
